# Measured values taken from patent EP1619197A1, “Substituted Pyrido[3',2':4,5]thieno[3,2-d]pyrimidin-2,4(1H,3H)diones and -4(3H)ones as well as Pyrido[3',2':4,5]furo[3,2-d]-pyrimidin-2,4(1H,3H)diones und -4(3H)ones as inhibitors of TNF-alpha release” (Curacyte Discovery GmbH, priority 2004, dated 2006).
# Tested on: TNFα-Freisetzung
# Test: Inhibition of TNFα release after LPS stimulation of human whole blood (ELISA)
# Assay type: cell-based
# Details: Homo sapiens, 24 h; bei 10nM; read-out: TNFα-Freisetzung hemmen
# Source text: Methodenbeschreibung der Hemmung der TNFα Freisetzung nach LPS Stimulation von humanem Vollblut
# Die Stimulierung isolierter Leukozyten für die Freisetzung von Zytokinen kann auf verschiedenen Wegen erfolgen. Lipopolysaccharide (LPS) stellen einen Stimulus für die Untersuchung der Freisetzung von TNFα dar. LPS ist Bestandteil bakterieller Zellwände und wird beim Abtöten der Bakterien (durch Antibiotika oder das natürliche Immunsystem) freigesetzt. LPS stimuliert insbesondere die Aktivität phagozytierender Leukozyten (Gewebsmakrophagen, Granulozyten, Monozyten) und verursacht die Infiltration von Leukozyten vom peripheren Blut in das betroffene Gewebe. Ein Zytokin von besonderer Bedeutung für diese Mechanismen ist TNFα, das in großen Mengen durch die betroffenen Zellen sezerniert wird. Hauptquelle dabei sind Monozyten und Makrophagen. TNFα initiiert und prolongiert den Entzündungsprozess im Zusammenspiel mit anderen Mediatoren.
# Für die Untersuchung des Effektes auf die LPS-induzierte TNFα-Freisetzung wurde eine Methode verwendet, die von MARX et al. (Marx D, Tassabehji M, Heer S, Hüttenbrink KB, Szelenyi I (2002) Pulmonary Pharmacology & Therapeutics 15 7-15) beschrieben wurde. Die Methode in Kürze: Humanes Blut wurde von verschiedenen Spendern entnommen, durch Zusatz von 10 mM Na-Citrat ungerinnbar gemacht und 1:5 mit RPMI 1640 Zellkulturmedium verdünnt. Die Testsubstanzen wurden den Blutproben in verschiedenen Konzentrationen zugefügt. 15 Minuten später wurden die Leukozyten durch Zusatz von Lipopolysacchariden (LPS) aus Salmonella abortus equi in einer Endkonzentration von 1µg/ml stimuliert. Nach Inkubation der Testansätze für 24 Stunden bei 37°C. und unter 5% CO2 in wassergesättigter Luft, wurde das Blut zentrifugiert und die Konzentration an TNFα im zellfreien Überstand unter Verwendung eines käuflichen ELISA (BD Biosciences) nach Angaben des Herstellers exakt vermessen.
row,Structure (SMILES),inhibition at 0.01 µM [%]
1,"CCCc1nc2c(sc3nc(-c4ccccc4)cc(-c4cccnc4)c32)c(=O)[nH]1 [7-Phenyl-2-n-propyl-9-(pyrid-3-yl)-pyrido[3',2':4,5]thieno[3,2-d]pyrimidin-4(3H)-on]",> 20
2,"CCc1nc2c(sc3nc(-c4ccccc4)cc(C)c32)c(=O)[nH]1 [2-Ethyl-9-methyl-7-phenyl-pyrido[3',2':4,5]thieno[3,2-d]pyrimidin-4-on]",> 20
3,"COc1ccc(-c2cc(C)c3c(n2)sc2c(=O)[nH]c(=O)[nH]c23)cc1 [7-(4-Methoxyphenyl)-9-methyl-pyrido[3',2':4,5]thieno[3,2-d]pyrimidin-2,4-dion]",> 20
4,"Cc1cc(-c2ccccc2)nc2sc3c(=O)[nH]c(=O)[nH]c3c12 [9-Methyl-7-phenyl-pyrido[3',2':4,5]thieno[3,2-d]pyrimidin-2,4-dion]",> 20
5,"Cc1cc(C)c2c(n1)sc1c(=O)[nH]c(=O)[nH]c12 [7,9-Dimethyl-pyrido[3',2':4,5]thieno[3,2-d]pyrimidin-2,4-dion]",> 20
6,"COc1ccc(-c2cc(C)c3c(n2)sc2c(=O)[nH]c(=O)[nH]c23)cc1OC [7-(3,4-Dimethoxyphenyl)-9-methyl-pyrido[3',2':4,5]thieno[3,2-d]pyrimidin-2,4-dion]",> 20

# Same assay, conditions: Homo sapiens, 24 h; bei 100nM; read-out: TNFα-Freisetzung hemmen
row,Structure (SMILES),inhibition at 0.1 µM [%]
1,"O=c1[nH]c(=O)c2sc3nc(-c4ccccc4)cc(-c4ccccc4)c3c2[nH]1 [7,9-Diphenyl-pyrido[3',2':4,5]thieno[3,2-d]pyrimidin-2,4-dion]",> 10
2,"Cc1c(-c2ccc([N+](=O)[O-])cc2)c(-c2ccccc2)nc2sc3c(=O)[nH]c(=O)[nH]c3c12 [9-Methyl-8-(4-nitrophenyl)-7-phenyl-pyrido[3',2':4,5]thieno[3,2-d]pyrimidin-2,4(1H,3H)-dion]",> 10
3,"CSc1nc2c(sc3nc(-c4ccccc4)cc(C)c32)c(=O)[nH]1 [9-Methyl-2-methylthio-7-phenyl-pyrido[3',2':4,5]thieno[3,2-d]pyrimidin-4(3H)-on]",> 10

# Same assay, conditions: bei 10nM
row,Structure (SMILES),TNFα-Freisetzung hemmen [%]
1,"Cc1cc(-c2ccc(F)cc2)nc2sc3c(=O)[nH]c(=O)[nH]c3c12 [7-(4-Fluorphenyl)-9-methyl-pyrido[3',2':4,5]thieno[3,2-d]pyrimidin-2,4-dion]",> 20
2,"O=C(O)c1nc2c(sc3nc(-c4ccccc4)ccc32)c(=O)[nH]1 [7-Phenyl-pyrido[3',2':4,5]thieno[3,2-d]pyrimidin-4(3H)-on-2-carbonsäure]",> 20

# Same assay, conditions: bei 100nM
row,Structure (SMILES),TNFα-Freisetzung hemmen [%]
1,"Cc1nc2c(sc3nc(-c4ccc(Br)cc4)cc(C)c32)c(=O)[nH]1 [7-(4-Brom-phenyl)-2,9-dimethyl pyrido[3',2':4,5]thieno[3,2-d]pyrimidin-4(3H)-on]",> 10
2,"CCOC(=O)c1nc2c(sc3nc(-c4ccccc4)ccc32)c(=O)[nH]1 [7-Phenyl-pyrido[3',2':4,5]thieno[3,2-d]pyrimidin-4(3H)-on-2-carbonsäureethylester]",> 10
